Where two headings read alike, the source gives them in different places.
Columns and labels:
[1] = target: α-amylase from Bacillus licheniformis (Bacillus licheniformis, UniProt P06278); experiment: biochemical; assay type: biochemical; details: for inhibition at 50 µg/mL: read-out: α-amylase (% inh. at 50 µg/mL); for α-amylase inhibitory potential (in words): within the tested concentrations
Description: The α-amylase inhibitory activity was evaluated by using the starch– iodine method with some modifications. The enzyme α-amylase from Bacillus licheniformis was used and enzyme solution was prepared with phosphate buffer (20 mM pH = 6.9 phosphate buffer prepared with 6 mM NaCl); then, 50 µL of α-amylase and 25 µL of different concentrations of compound or extract solutions were mixed in a 96-well microplate. The mixture was pre-incubated for 10 min at 37 °C; then, 50 µL of starch solution (0.05%) was added and incubated for 10 min at 37 °C. Following incubation, the reaction was completed by adding HCl (0.1 M, 25 µL) and Lugol (100 µL) solutions, and the absorbance was recorded at 565 nm.

[2] = tested on: α-glucosidase from Saccharomyces cerevisiae; experiment: α-glucosidase inhibitory assay (PNPG substrate); assay type: biochemical; details: for α-glucosidase (% inh. at 50 µg/mL): highest test concentration; for α-glucosidase inhibitory potential (in words): within the tested concentrations
Description: The α-glucosidase inhibitory activity was evaluated according to the method described previously. 50 µL of phosphate buffer (0.01 M pH 6.9), 10 µL of different concentrations of compound or extract solution, 50 µL of α-glucosidase from Saccharomyces cerevisiae in phosphate buffer (0.01 M pH 6.0) and PNPG (4-N-nitrophenyl-α-D-glucopyranoside) 25 µL in phosphate buffer (0.01 M pH 6.9) were mixed in a 96-well microplate. The solution was then incubated for 20 min at 37 °C.

STZ-induced diabetes = details: doses of 20 and 40 mg/kg; cited from earlier work
[3] = read-out: α-amylase IC50 (converted)

Chain of α-amylase from Bacillus licheniformis (P06278 30-512): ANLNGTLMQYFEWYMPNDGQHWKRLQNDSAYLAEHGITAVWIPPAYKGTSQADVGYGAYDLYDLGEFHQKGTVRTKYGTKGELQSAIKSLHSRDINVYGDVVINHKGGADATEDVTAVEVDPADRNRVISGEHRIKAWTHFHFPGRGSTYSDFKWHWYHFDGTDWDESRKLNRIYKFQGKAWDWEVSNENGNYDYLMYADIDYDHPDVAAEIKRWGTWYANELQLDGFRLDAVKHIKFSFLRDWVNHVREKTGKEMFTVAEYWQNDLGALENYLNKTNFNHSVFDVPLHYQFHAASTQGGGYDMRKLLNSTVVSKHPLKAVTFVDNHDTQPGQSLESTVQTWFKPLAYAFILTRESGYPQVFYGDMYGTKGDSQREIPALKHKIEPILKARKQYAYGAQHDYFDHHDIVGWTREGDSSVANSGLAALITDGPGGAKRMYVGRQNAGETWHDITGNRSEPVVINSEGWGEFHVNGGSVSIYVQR

| Compound | inhibition at 50 µg/mL [1] | α-glucosidase (% inh. at 50 µg/mL) [2] | IC50 [1, 3] | α-glucosidase IC50 [2] | antidiabetic potential in STZ-induced diabetic rats (STZ-induced diabetes) | IC50 [1] | α-amylase inhibitory potential (in words) [1] | α-glucosidase inhibitory potential (in words) [2] |
| --- | --- | --- | --- | --- | --- | --- | --- | --- |
| C[C@H]1O[C@H](O[C@H]2[C@H](O)[C@@H](O)[C@@H](O[C@H]3[C@H](O)[C@@H](O)C(O)O[C@@H]3CO)O[C@@H]2CO)[C@H](O)[C@@H](O)[C@@H]1N[C@H]1C=C(CO)[C@@H](O)[C@H](O)[C@H]1O (some centres unmarked) [Acarbose, reference compound] | 72.5 ± 1.5% | 81.7 ± 0.8% | – | – | – | – | – | – |
| Oc1cc(O)c2c(c1)OC1(c3ccc(O)c(O)c3)OC1C2c1c(O)cc(O)c2c1OC(c1ccc(O)c(O)c1)C(O)C2c1c(O)cc(O)c2c1OC(c1ccc(O)c(O)c1)C(O)C2 (centres unmarked) [compound 1, 2,3-Epoxyprocyanidin C1] | 34.3 ± 0.7% | 53.4 ± 1.6% | > 57.8 µM | 41.6 ± 1.0 µg/mL | – | – | – | – |
| C[C@H]1C(=O)CC[C@@H]2[C@]1(C)CC[C@H]1[C@@]2(C)CC[C@@]2(C)[C@@H]3CC(C)(C)CC[C@]3(C)CC[C@]12C [compound 2, friedelin] | 21.5 ± 0.6% | 32.1 ± 0.1% | – | >50 µg/mL | antidiabetic potential | > 117 µM | relatively low | relatively low |
| C=C(C)[C@@H]1CC[C@]2(CO)CC[C@]3(C)[C@H](CC[C@@H]4[C@@]5(C)CC[C@H](O)C(C)(C)[C@@H]5CC[C@]43C)[C@@H]12 [compound 3, betulin] | 19.3 ± 0.4% | 28.5 ± 0.3% | – | >50 µg/mL | – | > 113 µM | relatively low | relatively low |
| COc1ccc(C(C)C(=O)c2ccc(O)cc2O)cc1 (centres unmarked) [compound 4, angolensin] | 33.7 ± 0.5% | 54.1 ± 1.3% | > 184 µM | 43.4 ± 0.5 µg/mL | – | – | – | – |
| COc1cc(O)c2c(=O)c(-c3ccc(O)cc3)coc2c1 [compound 5, 7-methoxygenistein] | 32.2 ± 1% | 50.6 ± 1.2% | – | 47.6 ± 0.9 µg/mL | – | > 176 µM | – | – |
| COc1ccc2c(=O)c(-c3ccc(O)cc3)coc2c1 [compound 6, 7-methoxydaidzein] | 34.2 ± 0.5% | 51.8 ± 0.9% | > 186 µM | 46.3 ± 0.2 µg/mL | – | – | – | – |
| COc1c(-c2ccc(O)c(O)c2)oc2cc(O)cc(O)c2c1=O [compound 7, 3-O-methyl quercetin] | 50.2 ± 2% | 54.0 ± 1.0% | 152 µM | 39.5 ± 1.2 µg/mL | – | – | – | – |
| O=C(O)[C@H]1O[C@@H](Oc2cc(O)c3c(=O)cc(-c4ccc(O)cc4)oc3c2)[C@H](O)[C@@H](O)[C@@H]1O [compound 8, apigenin 7-O-glucoronide] | 50.9 ± 0.8% | 55.2 ± 1.1% | 109 µM | 40.9 ± 1.3 µg/mL | – | – | – | – |
| O=C1C[C@@H](c2ccc(O)cc2)Oc2cc(O[C@@H]3O[C@H](CO)[C@@H](O)[C@H](O)[C@H]3O)cc(O)c21 [compound 9, naringenin 7-O-β-D-glucopyranoside] | 50.5 ± 1.2% | 53.7 ± 0.4% | – | 44.8 ± 0.6 µg/mL | – | – | – | – |
| COc1cc2c(=O)oc3c(OC)c(OC4OC(COC5OC(C)C(O)C(O)C5O)C(O)C(O)C4O)cc4c(=O)oc(c1OC)c2c34 (centres unmarked) [compound 10, 3,3′,4-Trimethoxy-4′-rutinosylellagic acid] | 45.4 ± 0.3% | 51.8 ± 0.9% | > 76.6 µM | 45.0 ± 0.8 µg/mL | – | – | – | – |
| COc1cc2c(=O)oc3c(OC)c(OC4OC(COC5OC(C)C(OC(C)=O)C(OC(C)=O)C5OC(C)=O)C(OC(C)=O)C(OC(C)=O)C4OC(C)=O)cc4c(=O)oc(c1OC)c2c34 (centres unmarked) [compound 11, 3,3′,4-Trimethoxy-4′-hexaacetylrutinosylellagic acid] | 43.5 ± 0.6% | 50.7 ± 0.2% | > 55.3 µM | 47.5 ± 0.4 µg/mL | – | – | – | – |

— paper PMC9822058, “In Vitro Evaluation of α-amylase and α-glucosidase Inhibition of 2,3-Epoxyprocyanidin C1 and Other Constituents from Pterocarpus erinaceus Poir” (Molecules, 2022)
